What was measured:
[1] = tested on: urease, naturally present in the soil; assay: Dräger test: ammonia emission from soil treated with fertilizer granules; format: biochemical; conditions: for prevention of the degradation of U1: 0.25 g salt, 18 days storage; for prevention of the degradation of U1 / influence of DAP on the performance of the tested urease inhibitors in urea/DAP blends on addition of the salt: 10 g DAP; for influence of DAP on the performance of the tested urease inhibitors in urea/DAP blends on addition of the salt: 0.5 g salt, 3 weeks storage
Excerpt: Alternatively, the amount of the (thio)phosphoric acid triamide (2) in a sample after a certain time period may be determined indirectly by determining the urease inhibiting efficacy that is observable. The urease-inhibiting efficacy may be determined by the Dräger test as outlined in the Examples. The Dräger test is based on the determination of the concentration of ammonia gas that is set free from a soil sample being treated with a urea-containing fertilizer once a day. In general, a certain amount of ammonia is typically produced within a certain time period in a soil sample being treated with a urea-containing fertilizer due to the degradation of the urea-containing fertilizer caused by the urease, which is present in the soil. If the urea-containing fertilizer is provided in combination with a urease inhibitor such as a (thio)phosphoric acid triamide (2), the degradation of the urea-containing fertilizer is slowed down, so that a lower amount of ammonia will be produced in the same time period. On the other hand, if the (thio)phosphoric acid triamide (2) has decomposed to a certain extent, e.g. upon storage, the production of ammonia will be reduced only to a lower extent. The ammonia concentration measured after a certain time period may thus be correlated with the amount of the (thio)phosphoric acid triamide (2) in a sample. In order to exclude a destabilizing effect caused by the urea-containing fertilizer (3a), the (thio)phosphoric acid triamide (2) may be provided in combination with a stabilizing agent, which prevents decomposition caused by the fertilizer (3a). By comparing the decomposition of the (thio)phosphoric acid triamide (2) in the presence of the fertilizer (3a) only, with the decomposition of the (thio)phosphoric acid triamide (2) in the presence of the fertilizer mixture (3) comprising the fertilizer (3a) and the P-containing fertilizer (3b), the decomposition caused by the P-containing fertilizer (3b) can be determined.
For the Dräger test, 150 g Limburgerhof (Germany) soil is added to a 500 mL wide-mouth jar (9 cm diameter). Fertilizer granules are added and distributed evenly over the soil. The amount of fertilizer added corresponds to 115 mg of urea-N. The soil and fertilizer are then wetted with a fine spray of water (1 mL). Afterwards, the jar is closed with a lid. In the middle of the lid a hole is made in which an ammonia gas test tube (Dräger, Ammoniak 20/a-D 8101301, Diffusionsröhrchen) is placed. The urease, naturally present in the soil, hydrolyses urea into carbon dioxide and ammonia. The concentration of ammonia gas is read out once a day from the scale on the Dräger diffusion tube. All tests are performed in duplicate.
For the preparation of dry blend fertilizer mixtures, 10 g of urea treated with a urease inhibitor and 10 g of the other fertilizer are added to a small jar. After closing the jar, the fertilizers are mixed by vigorously shaking the jar. The closed jar is then stored at room temperature in a dark place. At the end of the storage time, urea granules are removed and tested using the Dräger test.

[2] = format: physicochemical; conditions: for decomposition of the urease inhibitors: after one day in the absence of TSP granules
Excerpt: The amount of the (thio)phosphoric acid triamide in a sample after a certain time period may be detected e.g. by HPLC using method DIN EN 16651. In order to exclude a destabilizing effect caused by the urea-containing fertilizer (3a), the (thio)phosphoric acid triamide (2) may be provided in combination with a stabilizing agent, which prevents decomposition caused by the fertilizer (3a). By comparing the decomposition of the (thio)phosphoric acid triamide (2) in the presence of the fertilizer (3a) only, with the decomposition of the (thio)phosphoric acid triamide (2) in the presence of the fertilizer mixture (3) comprising the fertilizer (3a) and the P-containing fertilizer (3b), the decomposition caused by the P-containing fertilizer (3b) can be determined.
Active ingredient content on urea was analyzed by HPLC (high-pressure liquid chromatography) using method DIN EN 16651. In case of bulk blends, the urea granules were separated from the other fertilizers before dissolving in water for HPLC analysis.
Urea granules treated with 0.04 wt.-% U1 active ingredient were mixed with TSP (Triple Super Phosphate) fertilizer granules. After mixing, the samples were stored in closed containers at room temperature. After 1 day of storage, the urea granules were separated from the TSP granules and the active ingredient (a.i.) concentration on the urea was analyzed by HPLC.

Q: With `O.O.O.O.O.O.O.O=S(=O)([O-])[O-].[Mg+2]` [Magnesium sulfate heptahydrate] as the compound, how does the “prevention of the degradation of U1” value [1] read?
A: The value was “does prevent the degradation of U1 as effectively as anhydrous magnesium sulfate”.

Q: With `CCCCNP(N)(N)=S` [NBPT, N-n-butylthiophosphoric acid triamide] as the compound, how does the “decomposition of the urease inhibitors” value [2] read?
A: Its value is “no decomposition”.

Q: With `CCCNP(N)(N)=S` [NPPT, N-n-propylthiophosphoric acid triamide] as the compound, how does the “decomposition of the urease inhibitors” value [2] read?
A: Its value is “no decomposition”.

Q: For `[Ca+2].[Cl-].[Cl-]` [calcium chloride, Calcium chloride anhydrous], which “prevention of the degradation of U1” value [1] is on record?
A: Its value is “effective in preventing the degradation of U1”.

Q: And the “influence of DAP on the performance of the tested urease inhibitors in urea/DAP blends on addition of the salt” value [1]?
A: The value was “eliminates the influence of DAP”.

Q: And the “prevention of the degradation of U1 active ingredient on wetblend fertilizers” value ([1]; 16-8-22 fertilizer treated with CaCl2 solution, 1 month storage)?
A: The value was “able to prevent the degradation of U1 active ingredient”.

Q: Which “prevention of the degradation of U1” value [1] does the source give for `O.O.O=S(=O)([O-])[O-].[Ca+2]` [calcium sulfate, Calcium sulfate dihydrate] here?
A: The value was “effective in preventing the degradation of U1”.

Q: For `O=S(=O)([O-])[O-].[Mg+2]` [magnesium sulfate, Magnesium sulfate anhydrous], which “prevention of the degradation of U1 in fertilizer mixtures containing DAP” value ([1]; 0.25 g MgSO4, 10 g DAP, 1 month storage) is on record?
A: The value was “does prevent the degradation of U1”.

Q: And the “influence of DAP on the performance of the tested urease inhibitors in urea/DAP blends on addition of the salt” value [1]?
A: The value was “eliminates the influence of DAP”.

Q: And the “time for which degradation of U1 in mixtures containing DAP is prevented” value ([1]; 1.25 wt.-% magnesium sulfate)?
A: The value was “up to 5 months”.

Q: What about the “time for which degradation of U1 in mixtures containing phosphate fertilizers is prevented” value ([1]; 2.5 wt.-% magnesium sulfate) of the same compound?
A: Its value is “up to 6 months”.

Q: What about the “inhibition of the urease activity by the salt itself” value ([1]; 10 g urea, 0.25 g MgSO4, 1 month storage) of the same compound?
A: The value was “does not inhibit the urease activity”.

Q: And the “inhibition of the urease enzyme by the salt on its own” value ([1]; Example 5, 18 days storage)?
A: Its value is “does not inhibit the urease enzyme”.

Q: And the “amount effective to avoid U1 degradation” value ([1]; after 5 days storage of the NP mixture (urea/DAP))?
A: The value was ≤ 0.25 wt.-%.

Q: Which “Remaining a.i. (%)” value ([2]; 24 h) does the source give for Urea here?
A: Its value is 100%.

— US12037300B2, “Use of a cation source to prevent decomposition of (thio)phosphoric acid triamide urease inhibitors when a phosphorus-containing fertilizer is present” (BASF SE, priority 2016, dated 2024)
